pIC50: −log10 of the molar value.
What was measured:
SARS-CoV-2 NSP7-HiBiT = details: read-out: NSP7- HiBiT; reduction of NSP7-HiBiT signal; degrader
HCoV-OC43 = test system: T1, HCoV-OC43; experiment: microbe, parasite or virus in culture; parameters: HCoV-OC43 infection assay, reduction of viral infection; details: Betacoronavirus 1, OC43, read-out: OC43
T1 construct: ATCC VR-1558

| SMILES | pIC50 (SARS-CoV-2 NSP7-HiBiT) | pIC50 (HCoV-OC43) |
| --- | --- | --- |
| CCSc1nsc(NC(=O)Nc2ccc3c(c2)OCCO3)n1 [BC24880, 5-[3-(2,3-dihydro-1,4-benzodioxin-6-yl)ureido]-3-(ethylthio)-1,2,4-thiadiazole] | 4.48 | 4.67 |
| CCSc1nsc(NC(=O)Nc2c(C)cccc2C)n1 [BC24905, 3-(ethylthio)-5-[3-(2,6-xylyl)ureido]-1,2,4-thiadiazole] | 4.66 | 4.80 |
| CCSc1nsc(NC(=O)Nc2ccc(F)cc2F)n1 [BC24884, 5-[3-(2,4-difluorophenyl)ureido]-3-(ethylthio)-1,2,4-thiadiazole] | 4.56 | 4.77 |
| CCSc1nsc(NC(=O)NCc2ccc(OC)cc2)n1 [BC24906, 3-(ethylthio)-5-{3-[(p-methoxyphenyl)methyl]ureido}-1,2,4-thiadiazole] | < 4.00 | < 4.00 |
| CCSc1nsc(NC(=O)Nc2ccc(C)c(F)c2)n1 [BC24873, 3-(ethylthio)-5-[3-(3-fluoro-4-tolyl)ureido]-1,2,4-thiadiazole] | 5.07 | 5.11 |
| CCSc1nsc(NC(=O)Nc2ccccc2C(F)(F)F)n1 [BC24866, 3-(ethylthio)-5-{3-[o-(trifluoromethyl)phenyl]ureido}-1,2,4-thiadiazole] | 4.73 | 4.91 |
| CCSc1nsc(NC(=O)Nc2cccc(C)c2C)n1 [BC24847, 3-(ethylthio)-5-[3-(2,3-xylyl)ureido]-1,2,4-thiadiazole] | 4.18 | 5.04 |
| CCSc1nsc(NC(=O)Nc2ccc(C)cc2Cl)n1 [BC24851, 5-[3-(2-chloro-4-tolyl)ureido]-3-(ethylthio)-1,2,4-thiadiazole] | < 4.00 | 4.76 |
| CCSc1nsc(NC(=O)NC2CCCCC2)n1 [BC24894, 5-(3-cyclohexylureido)-3-(ethylthio)-1,2,4-thiadiazole] | 4.63 | 4.76 |
| CCSc1nsc(NC(=O)NC2CCCC2)n1 [BC24872, 5-(3-cyclopentylureido)-3-(ethylthio)-1,2,4-thiadiazole] | < 4.00 | 4.51 |
| CCSc1nsc(NC(=O)Nc2ccc(C)cc2C)n1 [BC24867, 3-(ethylthio)-5-[3-(2,4-xylyl)ureido]-1,2,4-thiadiazole] | < 4.00 | 4.89 |
| CCSc1nsc(NC(=O)Nc2cccc(SC)c2)n1 [BC24888, 3-(ethylthio)-5-{3-[m-(methylthio)phenyl]ureido}-1,2,4-thiadiazole] | 5.04 | 5.28 |
| CCSc1nsc(NC(=O)NCCOC)n1 [BC24899, 3-(ethylthio)-5-[3-(2-methoxyethyl)ureido]-1,2,4-thiadiazole] | < 4.00 | < 4.00 |
| CCSc1nsc(NC(=O)Nc2ccc(OC)cc2)n1 [BC24857, 3-(ethylthio)-5-[3-(p-methoxyphenyl)ureido]-1,2,4-thiadiazole] | < 4.00 | 4.05 |
| CCSc1nsc(NC(=O)Nc2cc(F)c(F)c(F)c2)n1 [BC24910, 3-(ethylthio)-5-[3-(3,4,5-trifluorophenyl)ureido]-1,2,4-thiadiazole] | 5.65 | 6.38 |
| CCSc1nsc(NC(=O)NCC(C)C)n1 [BC24896, 3-(ethylthio)-5-(3-isobutylureido)-1,2,4-thiadiazole] | 4.53 | 4.52 |
| CCSc1nsc(NC(=O)Nc2ccc(Br)c(C)c2)n1 [BC24878, 5-[3-(4-bromo-3-tolyl)ureido]-3-(ethylthio)-1,2,4-thiadiazole] | 5.42 | 5.59 |

| SMILES | pIC50 (SARS-CoV-2 NSP7-HiBiT) | pIC50 (HCoV-OC43) |
| --- | --- | --- |
| CCSc1nsc(NC(=O)Nc2ccc3c(c2)CCC3)n1 [BC24915, 3-(ethylthio)-5-[3-(5-indanyl)ureido]-1,2,4-thiadiazole] | 4.47 | 4.76 |
| CCSc1nsc(NC(=O)NCCC(=O)OC)n1 [BC24874, methyl 3-{3-[3-(ethylthio)-1,2,4-thiadiazol-5-yl]ureido}propionate] | < 4.00 | 4.07 |
| CCSc1nsc(NC(=O)Nc2ccc(OC)cc2C)n1 [BC24916, 3-(ethylthio)-5-[3-(4-methoxy-2-tolyl)ureido]-1,2,4-thiadiazole] | < 4.00 | 4.76 |
| CCSc1nsc(NC(=O)Nc2cccc(Cl)c2)n1 [BC24842, 5-[3-(m-chlorophenyl)ureido]-3-(ethylthio)-1,2,4-thiadiazole] | 5.67 | 5.81 |
| CCOC(=O)CNC(=O)Nc1nc(SCC)ns1 [BC24868, ethyl {3-[3-(ethylthio)-1,2,4-thiadiazol-5-yl]ureido}acetate] | < 4.00 | < 4.00 |
| CCSc1nsc(NC(=O)NCCCOC)n1 [BC24869, 3-(ethylthio)-5-[3-(3-methoxypropyl)ureido]-1,2,4-thiadiazole] | < 4.00 | 4.25 |
| CCSc1nsc(NC(=O)Nc2cc(C)ccc2C)n1 [BC24849, 3-(ethylthio)-5-[3-(2,5-xylyl)ureido]-1,2,4-thiadiazole] | 4.89 | 5.27 |
| CCSc1nsc(NC(=O)Nc2cccc(C)c2)n1 [BC24863, 3-(ethylthio)-5-[3-(m-tolyl)ureido]-1,2,4-thiadiazole] | 5.29 | 5.69 |
| CCSc1nsc(NC(=O)Nc2ccccc2)n1 [BC24844, 3-(ethylthio)-5-(3-phenylureido)-1,2,4-thiadiazole] | 5.03 | 5.04 |
| CCOC(=O)C1CCC(CNC(=O)Nc2nc(SCC)ns2)CC1 (stereo not drawn) [BC24913, ethyl 4-({3-[3-(ethylthio)-1,2,4-thiadiazol-5-yl]ureido}methyl)cyclohexanecarboxylate] | < 4.00 | 4.76 |
| CCSc1nsc(NC(=O)Nc2cccc(C(F)(F)F)c2)n1 [BC24877] | 6.05 | 6.13 |
| CCSc1nsc(NC(=O)NCc2ccc(C)cc2)n1 [BC24879, 3-(ethylthio)-5-{3-[(p-tolyl)methyl]ureido}-1,2,4-thiadiazole] | 4.56 | 4.88 |
| CCSc1nsc(NC(=O)NCc2cccc(F)c2)n1 [BC24904, 3-(ethylthio)-5-{3-[(m-fluorophenyl)methyl]ureido}-1,2,4-thiadiazole] | < 4.00 | < 4.00 |
| CCSc1nsc(NC(=O)Nc2cc(F)ccc2F)n1 [BC24876, 5-[3-(2,5-difluorophenyl)ureido]-3-(ethylthio)-1,2,4-thiadiazole] | 4.71 | 5.26 |
| CCSc1nsc(NC(=O)Nc2ccccc2[N+](=O)[O-])n1 [BC24846, 3-(ethylthio)-5-[3-(o-nitrophenyl)ureido]-1,2,4-thiadiazole] | 4.61 | 4.94 |
| CCSc1nsc(NC(=O)N[C@@H](C)C(=O)OC)n1 [BC24889, methyl (S)-2-{3-[3-(ethylthio)-1,2,4-thiadiazol-5-yl]ureido}propionate] | < 4.00 | < 4.00 |

From paper PMC12463105, “NSP7 Molecular Degrader Attenuates Coronaviral Infection Through the β‐TrCP1/FBXO5 Axis” (Advanced Science, 2025)
